Key:
B2M = B2M editing in mouse liver by NGS after i.v. LNP delivery of Cas9 mRNA and sgRNA; type: in vivo; settings: CD-1 female mice; for Editing (%) of B2M in mouse liver: Example 52: LNP single dose 0.1 mg/kg i.v., sgRNA G650:Cas9 mRNA 1:1, NGS; for % Editing B2M in mouse liver: 7 days post-dose, G650 1:1
Protocol: Preparations of various LNP compositions were prepared with amine lipids. In assays for percent liver editing in mice, Cas9 mRNA and chemically modified sgRNA were formulated in LNPs, at either a 1:1 w/w ratio or a 1:2 w/w ratio. LNPs are formulated with a composition of a given ionizable lipid (e.g. an amine lipid), DSPC, cholesterol, and PEG-2k-DMG, with a 6.0 N:P ratio.
LNPs were administered to mice by a single dose at 0.1 mg/kg, unless otherwise noted and genomic DNA was isolated for NGS analysis as described below.
CD-1 female mice, ranging from 6-10 weeks of age were used in each study. Animals were weighed and grouped according to body weight for preparing dosing solutions based on group average weight. LNPs were dosed via the lateral tail vein in a volume of 0.2 mL per animal (approximately 10 mL per kilogram body weight). The animals were periodically observed post dose for adverse effects for at least 24 hours post dose. Animals were euthanized at 6 or 7 days by exsanguination via cardiac puncture under isoflurane anesthesia. Blood was collected into serum separator tubes or into tubes containing buffered sodium citrate for plasma as described herein. For studies involving in vivo editing, liver tissue was collected from each animal for DNA extraction and analysis.
Cohorts of mice were measured for liver editing by Next-Generation Sequencing (NGS).
In brief, to quantitatively determine the efficiency of editing at the target location in the genome, genomic DNA was isolated and deep sequencing was utilized to identify the presence of insertions and deletions introduced by gene editing.
PCR primers were designed around the target site (e.g., B2M), and the genomic area of interest was amplified. Additional PCR was performed according to the manufacturer's protocols (Illumina) to add the necessary chemistry for sequencing. The amplicons were sequenced on an Illumina MiSeq instrument. The reads were aligned to the […] after eliminating those having low quality scores. The resulting files containing the reads were mapped to the reference genome (BAM files), where reads that overlapped the target region of interest were selected and the number of wild type reads versus the number of reads which contain an insertion, substitution, or deletion was calculated.
The editing percentage (e.g., the “editing efficiency” or “percent editing”) is defined as the total number of sequence reads with insertions or deletions over the total number of sequence reads, including wild type.
CD-1 female mice were dosed i.v. at 0.1 mpk or 0.3 mpk. […] For animals dosed with G282 targeting TTR, blood and the liver were collected and serum TTR and editing were measured. For animals dosed with G650 targeting B2M, liver was collected and editing was measured.

[1] = pKa measurement of unformulated amine lipid (fluorescence, method of Jayaraman et al.); type: physicochemical; settings: 100 μM in 0.1 M phosphate buffer pH 4.5-9.0
Protocol: The pKa of each amine lipid was determined according to the method in Jayaraman, et al. (Angewandte Chemie, 2012) with the following adaptations. […] Lipid was diluted to 100 μM in 0.1 M phosphate buffer (Boston Bioproducts) where the pH ranged from 4.5-9.0. Fluorescence intensity was measured using excitation and emission wavelengths of 321 nm and 448 nm.

[2] = RNA encapsulation efficiency of LNP (Ribogreen fluorescence assay); type: physicochemical; settings: N:P 6.0
Protocol: A fluorescence-based assay (Ribogreen®, ThermoFisher Scientific) is used to determine total RNA concentration and free RNA. Encapsulation efficiency is calculated as (Total RNA−Free RNA)/Total RNA. LNP samples are diluted appropriately with 1× TE buffer containing 0.2% Triton-X 100 to determine total RNA or 1× TE buffer to determine free RNA. Standard curves are prepared by utilizing the starting RNA solution used to make the compositions and diluted in 1× TE buffer+/−0.2% Triton-X 100. Diluted RiboGreen® dye (according to the manufacturer's instructions) is then added to each of the standards and samples and allowed to incubate for approximately 10 minutes at room temperature, in the absence of light. A SpectraMax M5 Microplate Reader (Molecular Devices) is used to read the samples with excitation, auto cutoff and emission wavelengths set to 488 nm, 515 nm, and 525 nm respectively. Total RNA and free RNA are determined from the appropriate standard curves.
Encapsulation efficiency is calculated as (Total RNA−Free RNA)/Total RNA. The same procedure may be used for determining the encapsulation efficiency of a DNA-based cargo component. For single-strand DNA Oligreen Dye may be used, and for double-strand DNA, Picogreen Dye.

[3] = LNP average particle size and polydispersity by dynamic light scattering (Malvern Zetasizer); type: physicochemical
Source text: The LNPs have a size of about 1 to about 1,000 nm, about 10 to about 500 nm, about 20 to about 500 nm, in a sub-embodiment about 50 to about 400 nm, in a sub-embodiment about 50 to about 300 nm, in a sub-embodiment about 50 to about 200 nm, and in a sub-embodiment about 50 to about 150 nm, and in another sub-embodiment about 60 to about 120 nm. Preferably, the LNPs have a size from about 60 nm to about 100 nm. The average sizes (diameters) of the fully formed LNP, may be measured by dynamic light scattering on a Malvern Zetasizer. The LNP sample is diluted in phosphate buffered saline (PBS) so that the count rate is approximately 200-400 kcps. The data is presented as a weighted average of the intensity measure.
The LNPs disclosed herein have a size (e.g. Z-average diameter) of about 1 to about 250 nm. In some embodiments, the LNPs have a size of about 10 to about 200 nm. In further embodiments, the LNPs have a size of about 20 to about 150 nm. In some embodiments, the LNPs have a size of about 50 to about 150 nm. In some embodiments, the LNPs have a size of about 50 to about 100 nm. In some embodiments, the LNPs have a size of about 50 to about 120 nm. In some embodiments, the LNPs have a size of about 60 to about 100 nm. In some embodiments, the LNPs have a size of about 75 to about 150 nm. In some embodiments, the LNPs have a size of about 75 to about 120 nm. In some embodiments, the LNPs have a size of about 75 to about 100 nm. Unless indicated otherwise, all sizes referred to herein are the average sizes (diameters) of the fully formed nanoparticles, as measured by dynamic light scattering on a Malvern Zetasizer. The nanoparticle sample is diluted in phosphate buffered saline (PBS) so that the count rate is approximately 200-400 kcps. The data is presented as a weighted-average of the intensity measure (Z-average diameter).
Dynamic Light Scattering (“DLS”) is used to characterize the polydispersity index (“pdi”) and size of the LNPs of the present disclosure. DLS measures the scattering of light that results from subjecting a sample to a light source. PDI, as determined from DLS measurements, represents the distribution of particle size (around the mean particle size) in a population, with a perfectly uniform population having a PDI of zero.
LNP compositions are analyzed for average particle size, polydispersity index (pdi), total RNA content, encapsulation efficiency of RNA, and zeta potential. LNP compositions may be further characterized by lipid analysis, AF4-MALS, NTA, and/or cryo-EM. Average particle size and polydispersity are measured by dynamic light scattering (DLS) using a Malvern Zetasizer DLS instrument. LNP samples were diluted with PBS buffer prior to being measured by DLS. Z-average diameter which is an intensity-based measurement of average particle size was reported along with number average diameter and pdi. A Malvern Zetasizer instrument is also used to measure the zeta potential of the LNP. Samples are diluted 1:17 (50 μL into 800 μL) in 0.1×PBS, pH 7.4 prior to measurement.

TTR [4] = assay: Transthyretin (TTR) ELISA analysis of mouse serum after LNP dosing; type: in vivo; settings: 7 days post-dose; for inhibition in vivo at 0.03 mg/kg: read-out: Serum TTR (% KD)
Outline: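 Female CD-1 mice aged 6-10 weeks were grouped by body weight and given LNPs by lateral tail vein injection (0.2 mL per animal, about 10 mL per kilogram). Mice were bled by cardiac puncture under isoflurane into serum separator tubes. Serum was diluted 10,000-fold for the 0.1 mpk dose, and total TTR was quantified with a Mouse Prealbumin (Transthyretin) ELISA Kit following the kit directions.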

TTR [5] = assay: TTR editing in mouse liver by NGS after i.v. LNP delivery of Cas9 mRNA and sgRNA; type: in vivo; settings: CD-1 female mice, 7 days post-dose; for Editing Mean % Indel: G282 1:1
Outline: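 Cas9 mRNA and chemically modified sgRNA were co-formulated in LNPs made of an ionizable amine lipid, DSPC, cholesterol and PEG-2k-DMG at a 6.0 N:P ratio. CD-1 female mice aged 6-10 weeks received tail-vein injections of 0.2 mL. Liver genomic DNA was then amplified around the target site and sequenced on an Illumina MiSeq, with editing calculated as indel-containing reads over total reads.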

[6] = Table 3, Example 52: LNP, Cas9 mRNA + sgRNA (G650) 1:1 w/w, N:P 6.0
[7] = Table 26, Example 64: LNP, G282 (TTR) 1:1 w/w
[8] = Example 64: Dose 0.03 mpk (table) i.v., G282 1:1
[9] = Mus musculus, iv, 168 h, Example 64: Dose 0.03 mpk (table) i.v., G282 1:1
[10] = Example 64: Dose 0.03 mpk (table) i.v.
[11] = Table 26, Example 64: LNP, G282 1:1

For `CCCCCCCCCOC(=O)CCCCCCCN(CCO)CCCCCCCC(OCCCCCCCCC)OCCCCCCCCC` [Compound 2], the “Editing (%) of B2M in mouse liver” value (B2M) was 17.7% and the pKa [1] was 6.23.
In the case of `CCCCCCCCCCOC(CCCCCCCN(CCO)CCCCCCCC(=O)OCCCCCCCCC)OCCCCCCCCCC` [Compound 3, nonyl 8-[8,8-didecoxyoctyl(2-hydroxyethyl)amino]octanoate], the “Editing (%) of B2M in mouse liver” value (B2M) is reported as 8.8%, the “Encapsulation (%)” value ([2]; Table 3, Example 52: LNP, Cas9 mRNA + sgRNA (G650) 1:1 w/w, Compound 19 50/9/38/3, others 50/10/38.5/1.5) is reported as 98% and the pKa [1] is reported as 6.19. For the same compound, the “Num Ave Size (nm)” value [3, 6] was 57.41 nm, the PDI [3, 6] was 0.056 and the “Z-Ave Size (nm)” value [3, 6] was 75.79 nm.
With `CCCCCCCCCOC(=O)CCCCCCCN(CCO)CCCCCCCCCC(OCCCCCCC)OCCCCCCC` [Compound 4, nonyl 8-[10, 10-diheptoxydecyl(2-hydroxyethyl)amino]octanoate] the “% Editing B2M in mouse liver” value (B2M; Example 54: 0.1 mpk i.v.) was 29%, the “% Editing B2M in mouse liver” value (B2M; Example 54: 0.3 mpk i.v.) was 57% and the “Serum TTR” value (TTR [4]; Example 61: 0.1 mpk i.v., G282 1:1) was 333 µg/mL. The response vs control in vivo at 0.1 mg/kg (TTR [4]; Mus musculus, iv, 168 h, Example 61: 0.1 mpk i.v., G282 1:1, read-out: Serum TTR % TSS) was 26%, the pKa [1] was 7.04 and the “Editing Mean % Indel” value (TTR [5]; Example 61: 0.1 mpk i.v.) was 46.7%.
For `CCCCCCCCCOC(=O)CCCCCCCN(CCO)CCCCCCCCCC(OCCCCCCCC)OCCCCCCCC` [Compound 5], the “Editing (%) of B2M in mouse liver” value (B2M) was 13.2%, the “Serum TTR” value (TTR [4]; Example 56: 0.1 mpk i.v., G282) was 738 µg/mL and the “Serum TTR (% TSS)” value (TTR [4]; Example 56: 0.1 mpk i.v., G282) was 92 % TSS. It also gave a pKa [1] of 7.08 and an Editing % (TTR [5]; Example 56: 0.1 mpk i.v., G282) of 9%.
With `CCCCCCCCCOC(=O)CCCCCCCN(CCO)CCCCCCCCCC(OCCCCCCCCC)OCCCCCCCCC` [Compound 6, 8-[10,10-di(nonoxy)decyl-(2-hydroxyethyl)amino]octanoate] the “Editing (%) of B2M in mouse liver” value (B2M) was 8.2% and the pKa [1] was 6.3.
In the case of `CCCCCCCCCOC(=O)CCCCCCCN(CCCCCCC(OCCCCCCCC)OCCCCCCCC)CCCNC(=O)OC` [Compound 43, nonyl 8-((7,7-bis(octyloxy)heptyl)(3-((methoxycarbonyl)amino)propyl)amino)octanoate], the “Encapsulation (%)” value [2, 7] is reported as 94%, the “Serum TTR” value (TTR [4]; [8]) is reported as 619.2 µg/mL and the inhibition in vivo at 0.03 mg/kg (TTR [4]; [9]) is reported as -8.1%. The pKa [1] was 6.02, the “Editing Mean % Indel” value (TTR [5]; [10]) was 8.6% and the “Num Ave Size (nm)” value [3, 11] was 56 nm. The PDI [3, 11] was 0.05 and the “Z-Ave Size (nm)” value [3, 11] was 74 nm.
For `CCCCCCCCCOC(=O)CCCCCCCN(CCCCCCC(OCCCCCCCC)OCCCCCCCC)CCNC(=O)OC` [Compound 44, nonyl 8-((7,7-bis(octyloxy)heptyl)(2-((methoxycarbonyl)amino)ethyl)amino)octanoate], the “Encapsulation (%)” value [2, 7] was 59%, the “Serum TTR” value (TTR [4]; [8]) was 603.9 µg/mL and the inhibition in vivo at 0.03 mg/kg (TTR [4]; [9]) was -5.5%. The pKa [1] was 5.62, the “Editing Mean % Indel” value (TTR [5]; [10]) was 7.9% and the “Num Ave Size (nm)” value [3, 11] was 92 nm. The PDI [3, 11] was 0.25 and the “Z-Ave Size (nm)” value [3, 11] was 185 nm.
For `CCCCCCCCCOC(=O)CCCCCCCN(CCCCCCC(OCCCCCCCC)OCCCCCCCC)CCCNC(=O)NC` [Compound 46, nonyl 8-((7,7-bis(octyloxy)heptyl)(3-(3-methylureido)propyl)amino)octanoate], the “Encapsulation (%)” value [2, 7] was 98%, the “Serum TTR” value (TTR [4]; [8]) was 514.6 µg/mL and the inhibition in vivo at 0.03 mg/kg (TTR [4]; [9]) was 10.1%. For the same compound, the pKa [1] was 7.64, the “Editing Mean % Indel” value (TTR [5]; [10]) was 8.7% and the “Num Ave Size (nm)” value [3, 11] was 86 nm. For the same compound, the PDI [3, 11] was 0.03 and the “Z-Ave Size (nm)” value [3, 11] was 104 nm.

Reference: patent US20260225997A1, “IONIZABLE AMINE LIPIDS” (Intellia Therapeutics, Inc., priority 2018, published 2026)
